Results: the supplement of paper PMC10307832

Columns and labels:
Experiment in all cases: relative viability (nuclei count vs DMSO), 5 days (fraction); higher = more cells survive
Olaparib + Linsitinib = compound: O=C(c1cc(Cc2n[nH]c(=O)c3ccccc23)ccc1F)N1CCN(C(=O)C2CC2)CC1 [Olaparib] + C[C@]1(O)C[C@@H](c2nc(-c3ccc4ccc(-c5ccccc5)nc4c3)c3c(N)nccn32)C1 [Linsitinib] (partner 1 µM)
In short: (§1)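 The day after seeding in 1536-well plates, lung cancer cell lines were treated by pin tool with a single drug, or with a fixed anchor-drug dose together with five library-drug doses (not always all listed) in √10 steps. After 5 days, a combined fix-and-stain solution (final 0.05% Triton X-100, 1% formaldehyde, 1 ug/ml Hoechst) was added. Nuclei counted on 4× images gave relative viability as treated counts over vehicle counts, reported as the median of duplicate plates.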

Crizotinib + OSI-027 = compound: C[C@@H](Oc1cc(-c2cnn(C3CCNCC3)c2)cnc1N)c1c(Cl)ccc(F)c1Cl [Crizotinib] + COc1cccc2cc(-c3nc([C@H]4CC[C@H](C(=O)O)CC4)n4ncnc(N)c34)[nH]c12 [OSI-027] (partner 0.5 µM)
In short: as §1

Crizotinib + Alpelisib = compound: C[C@@H](Oc1cc(-c2cnn(C3CCNCC3)c2)cnc1N)c1c(Cl)ccc(F)c1Cl [Crizotinib] + Cc1nc(NC(=O)N2CCC[C@H]2C(N)=O)sc1-c1ccnc(C(C)(C)C(F)(F)F)c1 [Alpelisib] (partner 2 µM)
In short: as §1

Carfilzomib + Pemetrexed = compound: CC(C)C[C@H](NC(=O)[C@H](CCc1ccccc1)NC(=O)CN1CCOCC1)C(=O)N[C@@H](Cc1ccccc1)C(=O)N[C@@H](CC(C)C)C(=O)[C@@]1(C)CO1 [Carfilzomib] + Nc1nc2[nH]cc(CCc3ccc(C(=O)N[C@@H](CCC(=O)O)C(=O)O)cc3)c2c(=O)[nH]1 [Pemetrexed] (partner 0.2 µM)
In short: as §1

| Cell Line | relative viability (Olaparib + Linsitinib; first compound 0.08 µM) | relative viability (Olaparib + Linsitinib; first compound 0.253 µM) | relative viability (Olaparib + Linsitinib; first compound 2.53 µM) | relative viability (Olaparib + Linsitinib; first compound 8 µM) | relative viability (Crizotinib + OSI-027; first compound 0.01 µM) | relative viability (Crizotinib + OSI-027; first compound 0.03162 µM) | relative viability (Crizotinib + OSI-027; first compound 0.1 µM) | relative viability (Crizotinib + OSI-027; first compound 0.3162 µM) | relative viability (Crizotinib + OSI-027; first compound 1 µM) | relative viability (Crizotinib + Alpelisib; first compound 0.01 µM) | relative viability (Crizotinib + Alpelisib; first compound 0.03162 µM) | relative viability (Crizotinib + Alpelisib; first compound 0.1 µM) | relative viability (Crizotinib + Alpelisib; first compound 0.3162 µM) | relative viability (Crizotinib + Alpelisib; first compound 1 µM) | relative viability (Carfilzomib + Pemetrexed; first compound 0.001 µM) | relative viability (Carfilzomib + Pemetrexed; first compound 0.003162 µM) | relative viability (Carfilzomib + Pemetrexed; first compound 0.01 µM) | relative viability (Carfilzomib + Pemetrexed; first compound 0.03162 µM) | relative viability (Carfilzomib + Pemetrexed; first compound 0.1 µM) |
| --- | --- | --- | --- | --- | --- | --- | --- | --- | --- | --- | --- | --- | --- | --- | --- | --- | --- | --- | --- |
| NCI-H1993 | 0.745 | 0.749 | 0.831 | 0.78 | 0.564 | 0.507 | 0.543 | 0.516 | 0.563 | 0.669 | 0.625 | 0.652 | 0.715 | 0.737 | 0.593 | 0.502 | 0.574 | 0.518 | 0.351 |
| NCI-H23 | 0.572 | 0.572 | 0.45 | 0.299 | 0.631 | 0.58 | 0.66 |  | 0.541 | 0.691 | 0.662 | 0.572 |  | 0.724 | 0.532 | 0.666 | 0.508 | 0.165 | 0.169 |
| LCLC-97TM1 | 0.166 | 0.178 | 0.162 | 0.18 | 0.506 | 0.457 | 0.462 | 0.486 | 0.354 | 0.199 | 0.232 | 0.24 | 0.265 | 0.273 | 0.164 | 0.176 | 0.173 | 0.167 | 0.0627 |
| NCI-H1915 | 1.14 | 1.02 | 0.734 | 0.651 | 0.563 | 0.63 | 0.636 |  | 0.608 | 1.08 | 1.08 | 1.14 |  | 1.09 | 0.559 | 0.516 | 0.578 | 0.59 | 0.0792 |
| LOU-NH91 | 1.19 | 0.94 | 0.973 | 0.885 | 0.713 | 0.724 | 0.798 | 0.712 | 0.706 | 0.648 | 0.682 | 0.72 | 0.707 | 0.742 | 0.368 | 0.451 | 0.471 | 0.314 | 0.335 |
| EKVX | 1.38 | 0.91 | 1.01 | 1.06 | 0.744 | 0.737 | 0.756 | 0.651 | 0.744 | 0.849 | 0.967 | 0.792 | 0.905 | 0.864 | 0.393 | 0.447 | 0.489 |  | 0.371 |
| SK-LU-1 | 1.34 | 0.998 | 1.02 | 0.622 | 0.36 | 0.342 | 0.331 | 0.324 | 0.353 | 0.989 | 1.04 | 1.11 | 1.17 |  | 0.946 | 1.03 | 0.978 | 0.258 | 0.182 |
| LXF-289 | 1.05 | 0.899 | 1.02 | 0.968 | 0.769 | 0.809 | 0.758 | 0.489 | 0.877 | 0.968 | 1.07 | 1.01 | 0.987 | 1.03 | 0.947 | 0.933 | 0.909 | 0.108 | 0.125 |
| NCI-H2009 | 1.28 | 1.17 | 1.09 | 0.928 | 0.704 | 0.611 | 0.64 | 0.594 | 0.642 | 1.16 | 1.16 |  | 1.12 | 1.09 | 1.06 | 1.05 | 1.04 | 0.868 | 0.124 |
| HCC-827 | 0.899 | 0.886 | 0.922 | 0.774 | 0.704 | 0.738 | 0.793 | 0.461 | 0.467 | 0.896 | 0.944 | 0.938 | 0.859 |  | 0.252 | 0.267 | 0.277 | 0.254 | 0.155 |
| NCI-H3122 | 0.95 | 1.04 | 0.954 | 0.899 | 0.896 | 0.909 | 0.79 | 0.218 | 0.16 | 0.729 | 0.667 | 0.857 | 0.867 | 0.796 | 0.194 | 0.198 | 0.207 | 0.189 | 0.154 |
| NCI-H2126 | 0.808 | 0.641 | 0.698 | 0.7 | 0.638 | 0.7 | 0.714 | 0.654 | 0.621 | 0.719 | 0.782 | 0.714 | 0.708 | 0.79 | 0.612 | 0.702 | 0.678 | 0.617 | 0.424 |
| HARA | 1.07 | 0.829 | 1.04 | 0.792 | 0.543 | 0.504 | 0.46 |  | 0.432 | 0.859 | 0.836 | 0.863 | 0.881 | 0.767 | 0.241 | 0.23 | 0.252 | 0.0877 | 0.155 |
| LC-2-ad | 0.81 | 0.754 | 0.787 | 0.633 | 0.761 | 0.974 | 0.96 | 0.612 | 0.705 | 0.839 | 0.981 | 1.01 |  | 0.895 | 0.275 | 0.302 | 0.28 | 0.273 | 0.232 |
| UMC-11 | 1.03 | 0.974 | 0.798 | 0.504 | 0.418 | 0.472 | 0.523 | 0.434 | 0.46 | 0.961 | 0.921 | 0.968 | 0.956 | 0.974 | 0.803 | 0.928 | 0.881 | 0.652 | 0.251 |
| EMC-BAC-2 | 0.945 | 0.792 | 0.85 | 0.621 | 0.431 | 0.391 | 0.342 | 0.295 | 0.36 | 0.76 | 0.818 | 0.715 |  | 0.781 | 0.496 | 0.492 | 0.46 | 0.434 | 0.432 |
| COR-L 105 | 1.03 | 0.804 | 0.706 | 0.591 | 0.577 | 0.803 | 0.657 | 0.562 | 0.728 |  | 0.872 | 0.972 | 0.88 | 0.828 | 1.24 | 1.09 | 1.19 | 0.469 | 0.317 |
